Laboratory results published in publication PMC5567672 (Neuropharmacology, 2016).
Like-named read-outs stand apart in the source and are kept apart here.

Legend:
mice [1] = test system: mice
patients = settings: ref Post et al. in press; cited from earlier work
animals = settings: ref Post et al. in press; cited from earlier work
rodents = settings: ref Jenck et al., 1997, 2000; cited from earlier work
mice [2] = test: Elevated plus maze; format: in vivo, mouse; settings: for EPM activity (Table 1 summary): in vivo, mice
NOP(−/−) mice = test: Elevated plus maze; format: in vivo, mouse; settings: Ro 65–6570 0.1 mg/kg, i.p.; 8–10 mice per group
NOP(+/+) mice = test: Elevated plus maze; format: in vivo, mouse; settings: Ro 65–6570 0.1 mg/kg, i.p.; 8–10 mice per group
mice [3] = test: Forced swim test; format: in vivo, mouse; settings: for FST activity (Table 1 summary): in vivo, mice
[4] = biological target: T1, NOP/G-protein interaction (NOP receptor) (Homo sapiens, UniProt P41146); settings: 2015, cited from earlier work; for antagonism of N/OFQ effects, NOP/G protein / rank order of antagonist potency, NOP/G protein: against N/OFQ, ref Camarda et al., 2009, Malfacini et al.
T1 sequence (P41146 whole entry): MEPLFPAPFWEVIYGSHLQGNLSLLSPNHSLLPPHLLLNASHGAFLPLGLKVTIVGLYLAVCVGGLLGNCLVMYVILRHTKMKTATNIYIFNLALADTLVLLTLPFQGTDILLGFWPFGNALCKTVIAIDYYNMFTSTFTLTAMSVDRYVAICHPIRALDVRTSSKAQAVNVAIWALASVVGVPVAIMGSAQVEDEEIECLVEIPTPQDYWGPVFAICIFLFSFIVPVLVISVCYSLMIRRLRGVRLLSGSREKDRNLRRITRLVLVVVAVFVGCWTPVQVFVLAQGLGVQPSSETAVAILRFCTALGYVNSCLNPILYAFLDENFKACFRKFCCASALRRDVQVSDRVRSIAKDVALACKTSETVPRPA

[5] = biological target: T2, NOP/β-arrestin 2 interaction (NOP receptor) (Homo sapiens, UniProt P41146); settings: ref Malfacini et al., 2015, cited from earlier work; for antagonism of N/OFQ stimulated NOP/β-arrestin 2 interaction: against N/OFQ
T2 sequence (P41146 whole entry): as above

β-arrestin 2(−/−) mice [6] = settings: ref Beaulieu et al., 2008, David et al., 2009; cited from earlier work
β-arrestin 2(−/−) mice [7] = settings: chronic treatment, various assays; ref David et al., 2009; cited from earlier work
wild type mice = settings: ref Beaulieu et al., 2008; cited from earlier work
[8] = biological target: T2, NOP/β-arrestin 2 interaction (NOP receptor); test: BRET assay, NOP/β-arrestin 2 interaction; format: cell-based; settings: relative to N/OFQ
[9] = biological target: T1, NOP/G-protein interaction (NOP receptor); format: biochemical

CC(C)[C@H]1CC[C@@H](N2CCC(N3C(=O)C(=O)c4ccccc43)CC2)CC1 [AT-090, 1-(1-(cis-4-isopropylcyclohexyl)piperidin-4-yl)indoline-2,3-dione]
motor impairment in the rotarod test (mice [1]; AT-090 at the higher dose tested, i.p., Fig. S1): did not evoke any motor impairment

Cc1nn(-c2ncccc2CO)cc1CN1CCC2(CC1)OCC(F)(F)c1cc(Cl)sc12 [LY2940094]
antidepressant effects, patients (patients): robust antidepressant effects
antidepressant effects, animals (animals): robust antidepressant effects

O=C1NCN(c2ccccc2)C12CCN([C@@H]1CC[C@H]3CCCc4cccc1c43)CC2 [Ro64–6198]
anxiolytic-like effects (rodents): produce anxiolytic-like effects

O=C1NCN(c2ccccc2)C12CCN(C1Cc3cccc4cccc1c34)CC2 (stereo not shown) [Ro 65–6570]
time spent in and number of entries in the open arms (mice [2]; Ro 65–6570 0.01–0.1 mg/kg, i.p., 30 min prior, CD-1 mice, 12–16 per group): increased in a dose-dependent manner
EPM activity (Table 1 summary) (mice [2]): anxiolytic
anxiolytic-like effect, NOP(−/−) mice (NOP(−/−) mice): not NOP(−/−) mice
anxiolytic-like effect, NOP(+/+) mice (NOP(+/+) mice): evident in NOP(+/+)
immobility time (mice [3]; Ro 65–6570 0.1 mg/kg, i.p., 30 min prior, CD-1 mice, 11–16 per group): had no effect
FST activity (Table 1 summary) (mice [3]): inactive
motor impairment in the rotarod test (mice [1]; mouse, in vivo): did not produce any motor impairment

Cc1cccc2c1CC[C@H](CN1CCC(c3c(Cl)cccc3Cl)CC1)C[C@@H]2O [SB-612111, (−)-cis-1-methyl-7-[[4-(2,6-dichlorophenyl)piperidin-1-yl]methyl]-6,7,8,9-tetrahydro-5H-benzocyclohepten-5-ol]
antagonism of N/OFQ effects, NOP/G protein [4]: antagonized N/OFQ effects showing a competitive type of interaction
rank order of antagonist potency, NOP/G protein [4]: SB-612111 > UFP-101
pharmacological activity, G protein (Table 1 summary), previously obtained ([4]; in vitro, G protein, ref Malfacini et al.): antagonist
behavior in the EPM, per se (mice [2]; SB-612111 10 mg/kg, i.p., 30 min, CD-1 mice, 10–12 per group): did not modify per se the mouse behavior
block of the anxiolytic-like effects of Ro 65–6570 (mice [2]; SB-612111 10 mg/kg, i.p., 30 min pre-treatment, against Ro 65–6570 0.1 mg/kg i.p., CD-1 mice): completely block
EPM activity (Table 1 summary) (mice [2]): inactive
FST activity (Table 1 summary) (mice [3]): antidepressant
antagonism of N/OFQ stimulated NOP/β-arrestin 2 interaction [5]: able to antagonize
pharmacological activity, β-arrestin (Table 1 summary), previously obtained ([5]; in vitro, β-arrestin): antagonist

CNCCC(Oc1ccc(C(F)(F)F)cc1)c1ccccc1 (stereo not shown) [fluoxetine]
antidepressant effects, tail suspension test (β-arrestin 2(−/−) mice [6]): did not evoke antidepressant effects
anxiolytic-like effects in β-arrestin 2(−/−) mice (β-arrestin 2(−/−) mice [7]): failed to induce anxiolytic-like effects

[Li] [lithium]
antidepressant effects, tail suspension test (β-arrestin 2(−/−) mice [6]): did not evoke antidepressant effects
latency to cross, light/dark test, wild type (wild type mice): reduces the latency to cross in wild type

[Nphe 1, Arg 14, Lys 15]N/OFQ-NH 2 [UFP-101]
antagonism of N/OFQ effects, NOP/G protein [4]: antagonized N/OFQ effects showing a competitive type of interaction
rank order of antagonist potency, NOP/G protein [4]: SB-612111 > UFP-101
EPM activity (Table 1 summary) (mice [2]): inactive
FST activity (Table 1 summary) (mice [3]): antidepressant
stimulation of NOP/β-arrestin 2 interaction (in words) [8]: inactive
antagonism of N/OFQ stimulated NOP/β-arrestin 2 interaction [5]: able to antagonize
stimulation of NOP/G-protein interaction (in words) [9]: inactive
